Source: patent US8530465B2, “1, 2-disubstituted amido-anthraquinone derivatives, preparation method and application thereof” (National Defense Medical Center, priority 2010, dated 2013)

Assays:
[1] = test system: hTERT; assay: Secreted alkaline phosphatase (SEAP) assay, PhTERT-SEAP (H1299); type: cell-based; conditions: Homo sapiens, 24 hours; for activity at 1 µM: NCI-H1299, Conc. 1 μM, read-out: Relative SEAP activity (%); for activity at 10 µM: NCI-H1299, Conc. 10 μM; for activity at 10 µM / activity at 100 µM: read-out: Relative SEAP activity (%) (converted); for activity at 100 µM: NCI-H1299, Conc. 100 μM
Method: H1299 were grown in RPMI 1640 media supplemented with 10% fetal bovine serum, 100 units/mL penicillin and […] streptomycin in a humidified atmosphere with 5% CO2 at 37° C. Culture media were changed every three days. To establish stable cell lines that the expression of hTERT could be monitored by a reporter system, a about 3.3 kbp DNA fragment ranging from −3338 to +1 bp of the hTERT gene (hTERT promoter, PhTERT) was subcloned upstream to a secreted alkaline phosphatase gene (SEAP) and transfected into H1299 by electroporation. The stable clones were selected using G418. The stable clones derived from H1299 were cultured using conditions that are similar to their parental cells.
Secreted alkaline phosphatase was used as the reporter system to monitor the transcriptional activity of hTERT. Here, about 10^4 cells each were grown in 96-well plates and incubated at 37° C. for 24 hours and changed with fresh media. Varying amounts of drugs were added and cells were incubated for another 24 hours. Culture media were collected and heated at 65° C. for 10 min to inactivate heat-labile phosphatases. An equal amount of SEAP buffer (2 M diethanolamine, 1 mM MgCl2, and 20 mM L-homoarginine) was added to the media and p-nitrophenyl phosphate was added to a final concentration of 12 mM. Absorptions at 405 nm were taken, and the rate of absorption increase is determined (the increasing rate of absorbance at 405 nm was used to represent the activity of SEAP).

[2] = MTT assay, PhTERT-SEAP (H1299); type: cell-based, human; conditions: human, H1299 cells carrying the PhTERT-SEAP reporter, PhTERT-SEAP (H1299); for viability at 1 μM: Conc. 1 μM, read-out: Relative MTT viability (%); for viability at 10 μM: Conc. 10 μM
Method: (§1) Further, cells were subjected to MTT assay to compare the relative toxicity or effect of each compound on cell proliferation and activity.
(§2) The above-described cells are cultured in a 96-well plate, to which was added with 25 μl MTT solution, and cultured in a 37° C. carbon dioxide incubator for 4 hours. Then, 100 μl Lysis buffer is added and incubated in a 37° C. carbon dioxide incubator overnight. An ELISA reader (Bio-Rad Model 450) is used to read optical density (O.D.) at 550 nm.

[3] = test system: H1299; assay: MTT assay, PhTERT-SEAP (H1299); type: cell-based, human; conditions: H1299; for cell toxicity activity: low concentration (1 μM)
Method: as §1, §2

[4] = read-out: Relative MTT viability (%) (converted)

| melting point [°C] | Structure (SMILES) | activity at 1 µM [1] [%] | activity at 10 µM [1] [%] | activity at 100 µM [1] [%] | viability at 1 μM [2] [%] | viability at 10 μM [2, 4] [%] | inhibitory activity among compounds CC-35 to CC-50 ([3]; SEAP and MTT analysis) | cell toxicity / inhibitory activity compared with mitoxantrone and doxorubicin ([3]; SEAP and MTT analysis) | cell toxicity activity [3] | viability at 100 μM ([2]; Conc. 100 μM, read-out: Relative MTT viability (%) (converted)) | cell toxicity ([3]; 1 μM, 10 μM, and 100 μM) |
| --- | --- | --- | --- | --- | --- | --- | --- | --- | --- | --- | --- |
| 210 to 211 | Cc1ccc(C(=O)Nc2c(NC(=O)CN3CCN(CCO)CC3)ccc3c2C(=O)c2ccccc2C3=O)cc1 [CC-44, 1-(4-methylbenzamido)-2-[2-(4-(2-hydroxyethyl)piperazino]acetylamino]-anthraquinone] | 77 ± 9.13 | 8.09 | -1.24 | 71.5 ± 5.12 | 44.8 | higher inhibitory activity | – | – | – | – |
| 184 to 185 | O=C(CCl)Nc1ccc2c(c1NC(=O)c1ccc(F)cc1)C(=O)c1ccccc1C2=O [CC-15, 1-(4-fluorobenzamido)-2-(chloroacetamido)-anthraquinone] | 11.9 ± 9.77 | 2.58 | 0.52 | 10.9 ± 2.92 | 4.2 | – | inhibitory activity even better than mitoxantrone and doxorubicin | very strong cell toxicity activity | – | – |
| 197 to 198 | O=C(CCl)Nc1ccc2c(c1NC(=O)c1cccc(F)c1)C(=O)c1ccccc1C2=O [CC-14, 1-(3-fluorobenzamido)-2-(chloroacetamido)-anthraquinone] | 26.9 ± 11.6 | 1.77 | 0.97 | 18.3 ± 13.5 | 8.06 | – | inhibitory activity even better than mitoxantrone and doxorubicin | very strong cell toxicity activity | – | – |
| 175 to 176 | CC(Cl)C(=O)Nc1c(NC(=O)CCl)ccc2c1C(=O)c1ccccc1C2=O (stereo not shown) [CC-06, 1-[(2-chloropropanyl)amido]-2-(chloroacetamido)-anthraquinone] | 12.1 ± 0.44 | 1.04 | 2.38 | 9.01 ± 1.66 | – | – | higher cell toxicity activity than mitoxantrone and doxorubicin | – | – | – |

| Structure (SMILES) | melting point [°C] | activity at 1 µM [1] [%] | activity at 10 µM [1] [%] | activity at 100 µM [1] [%] | viability at 1 μM [2] [%] | viability at 10 μM [2, 4] [%] | inhibitory activity among compounds CC-35 to CC-50 ([3]; SEAP and MTT analysis) | cell toxicity / inhibitory activity compared with mitoxantrone and doxorubicin ([3]; SEAP and MTT analysis) | cell toxicity activity [3] | viability at 100 μM ([2]; Conc. 100 μM, read-out: Relative MTT viability (%) (converted)) | cell toxicity ([3]; 1 μM, 10 μM, and 100 μM) |
| --- | --- | --- | --- | --- | --- | --- | --- | --- | --- | --- | --- |
| O=C(CN1CCN(c2ccccc2)CC1)Nc1ccc2c(c1NC(=O)c1ccccc1)C(=O)c1ccccc1C2=O [CC-33, 1-(benzamido)-2-[2-(4-phenylpiperazino)acetylamino]-anthraquinone] | 225 to 226 | 85.9 ± 8.01 | 97.9 ± 4.82 | 89.6 ± 3.37 | 86.3 ± 2.6 | 110 ± 8.53 | – | – | – | 88 ± 6.32 | no significant cell toxicity |
| O=C(CCl)Nc1ccc2c(c1NC(=O)CCl)C(=O)c1ccccc1C2=O [CC-01, 1,2-bis-(chloroacetamido)-anthraquinone] | 254 to 255 | 15.9 ± 1.06 | 13.7 | 13.7 | 8.1 ± 3.87 | – | – | higher cell toxicity activity than mitoxantrone and doxorubicin | – | – | – |
